Patent US20230033582A1, “POLYMERIC NANOPARTICLES FOR ENHANCED CANCER TREATMENT” (THE QUEEN'S UNIVERSITY OF BELFAST, priority 2019, published 2023)

Experiments:
MC38 cells = experiment: Flow cytometry of SIINFEKL presentation on MHC I (SIINFEKL-bound MHC antibody) in MC38 cells; format: cell-based; settings: for presentation of NP-encapsulated OVA-derived SIINFEKL after pre-treatment: then OVA-NPs for 6 hours
Protocol: FIG. 8: illustrate the results of Gemcitabine enhances SIINFEKL presentation: MC38 cells were pretreated with 30 nm Gemcitabine for 24 hours. Then, cells were treated with 1 μM SIINFEKL peptide for 6 hours. After 6 hours, cells were stained with PE-SIINFEKL-bound MHC antibody to determine the levels of SIINFEKL presentation. Presentation of SIINFEKL was enhanced after pre-treatment with Gemcitabine highlighting the potential of boosting CD8+ T cell recognition of tumour cells through combining the nanoformulation with Gemcitabine;
(§1) FIG. 9: illustrate the results of Gemcitabine enhances the presentation of Ovalbumin-derived SIINFEKL encapsulated within nanoparticles: MC38 cells were pre-treated with 7.5, 15 and 30 nm Gemcitabine for 24 hours. Then, the cells were treated with OVA-NPs for 6 hours. After 6 hours, cells were stained with PE-SIINFEKL-Bound MHC antibody and an isotype control antibody to determine levels of OVA-derived SIINFEKL presentation. NP-encapsulated OVA-derived SIINFEKL was seen to be enhanced after pre-treatment with Gemcitabine;
FIG. 10: illustrate the results of Epigenetic modifying agents (EMAs) enhance the presentation of Ovalbumin-derived SIINFEKL encapsulated within nanoparticles: MC38 cells were pre-treated with Entinostat and Decitabine. After 24 hours, cells were treated with OVA-NPs (250 μg/mL) for 6 hours. Cells were stained with SIINFEKL-bound MHC antibody and the surface presentation of SIINFEKL was determined by flow cytometry. Both agents in combination enhanced SIINFEKL presentation;
as §1, with “11:” for “9:”, “Lysosome disruptive agent L-leucyl-L-leucine methyl ester (LLOME)” for “Gemcitabine”, “LLOME” for “7.5, 15 and 30 nm Gemcitabine”, “PE-SIINFEKL-bound” for “PE-SIINFEKL-Bound”, “LLOME;” for “Gemcitabine;”
as §1, with “12:” for “9:”, “the anti-malarial Mefloquine” for “Gemcitabine”, “Mefloquine” for “7.5, 15 and 30 nm Gemcitabine”, “PE-SIINFEKL-bound” for “PE-SIINFEKL-Bound”, “Mefloquine.” for “Gemcitabine;”
MC38 cells were seeded at 5×10^4 in 6 well plates and left overnight to adhere in 2 mL of the appropriate growth medium. Following this, the cells were treated with 250 μg/mL of either acid terminated poly(lactic-co-glycolic acid) (PLGA) nanoparticles (NPs) or PLGA NPs encapsulating the SIINFEKL peptide (for cells treated at 4 degrees C., cells were maintained at 4° C. for 45 minutes prior to treatment). Following treatment, the cells were washed 3 times with sterile PBS (4° C. treatment group were washed on ice) and the cells incubated for a following 6 hours at 37° C. The surface expression of SIINFEKL was determined by flow cytometry.
MC38 cells were seeded at 5×10^4 in 6 well plates and left overnight to adhere in 2 mL of the appropriate growth medium. Following this, the cells were treated with 250 μg/mL of either acid terminated poly(lactic-co-glycolic acid) (PLGA) nanoparticles (NPs) or PLGA NPs encapsulating the Ovalbumin protein. Free, pre-processed SIINFEKL was used as a positive control. Cells were incubated for 24 hours at 37° C. Following this, the cells were collected and incubated with a PE-conjugated antibody specific for MHC-I bound to the SIINFEKL peptide (Biolegend, USA). Next, presentation of the SIINFEKL peptide was assessed by flow cytometry. […]

[1] = target: SIINFEKL bound to MHC class I on the cell surface (UniProt P01901); experiment: flow cytometry, JAWS II cells treated with free SIINFEKL
JAWS II cells = experiment: Flow cytometry of SIINFEKL presentation on MHC I (SIINFEKL-bound MHC antibody) in JAWS II dendritic cell line; format: cell-based; settings: FIG. 5, free SIINFEKL positive control, 6 hours
Protocol: FIG. 5: illustrate the results of Nanoparticle encapsulated SIINFEKL is presented on MHC I in the JAWS II dendritic cell line: JAWS II cells were seeded in 6 well plates at 1×10^5 and left overnight. The following day, cells were treated with either 500 μg of PLGA-SIINFEKL NP (SIINFEKL NP), PLGA NP (B-NP) or free SIINFEKL (Positive control). The cells were incubated at 37° C. in 5% CO2 for 6 hours. After incubation, an antibody specific for SIINFEKL bound to MHC I was used to detect cell surface expression of the antigen. Assessment was undertaken using flow cytometry. An Isotype specific IgG control (SIINFEKL IgG) was used to detect non-specific binding of the antibody. […] Diagram is a representative figure from 3 independent experiments;
FIG. 6: illustrate the results of Presentation of nanoparticle-encapsulated SIINFEKL is dependent on endocytosis: (A) JAWS II cells and (B) MC38 cells ells were treated with either 250 μg/mL blank nanoparticles (B-NP), 250 μg/mL nanoparticles encapsulating the SIINFEKL peptide (SIINFEKL-NP) or 1 μM free SIINFEKL (positive control) for 1 hour at either 4° C. or 37° C. Cells were washed to remove non-endocytosed nanoparticles or free peptide and were incubated at 37° C. Cells were stained with SIINFEKL-bound MHC antibody and SIINFEKL presentation was determined by flow cytometry. […]

[2] = FIG. 11 and 12, MC38 cells pre-treated for 24 hours

## Nc1ccccc1NC(=O)c1ccc(CNC(=O)OCc2cccnc2)cc1 [Entinostat]
MC38 cells; FIG. 10, MC38 cells pre-treated with Entinostat and Decitabine 24 hours, then OVA-NPs (250 μg/mL) for 6 hours
  SIINFEKL presentation after pre-treatment, both agents in combination: enhanced

## Nc1ccn([C@@H]2O[C@H](CO)[C@@H](O)C2(F)F)c(=O)n1 [Gemcitabine]
MC38 cells; FIG. 8, MC38 cells pretreated with 30 nm Gemcitabine for 24 hours, then 1 μM SIINFEKL peptide for 6 hours
  Presentation of SIINFEKL after pre-treatment: enhanced
MC38 cells; FIG. 9, MC38 cells pre-treated with 7.5, 15 and 30 nm Gemcitabine for 24 hours
  presentation of NP-encapsulated OVA-derived SIINFEKL after pre-treatment: enhanced

## COC(=O)[C@H](CC(C)C)NC(=O)[C@@H](N)CC(C)C [LLOME, L-leucyl-L-leucine methyl ester]
MC38 cells; [2]
  presentation of NP-encapsulated OVA-derived SIINFEKL after pre-treatment: enhanced

## OC(c1cc(C(F)(F)F)nc2c(C(F)(F)F)cccc12)C1CCCCN1 (centres unmarked) [Mefloquine]
MC38 cells; [2]
  presentation of NP-encapsulated OVA-derived SIINFEKL after pre-treatment: enhanced

## PE-conjugated antibody specific for MHC-I bound to the SIINFEKL peptide (Biolegend, USA)
[1]
  positive cells: 100%

## SIINFEKL (Model Peptide) [SIINFEKL peptide, positive control]
JAWS II cells
  cells positive for SIINFEKL-MHC I antibody staining: ~100%
MC38 cells; FIG. 3, MC38 cells, 1 μM SIINFEKL peptide for 4 hours
  SIINFEKL on the cell surface (fluorescent signal, geomean): high levels SIINFEKL on the surface
